{"source": "paper PMC13342036", "about": "“Genomic and Proteolytic Profiling of Lacticaseibacillus sp. PRA205: Insights into PepX-Mediated Bioactive Peptide Metabolism” (Probiotics and Antimicrobial Proteins, 2025)", "key": {"PepX": {"tested_on": "PepX", "test": "Effect of protease inhibitors (PMSF, EDTA) on partially purified PepX activity, Gly-Pro-pNA substrate", "assay_type": "biochemical, Lacticaseibacillus sp. PRA205", "settings": "pH 7.0, 37 °C; for effect on PepX enzymatic activity (decrease): inhibitor 1 mmol/L", "procedure": "PepX activity in the Lcb. casei PRA205 cytoplasmic extract was assessed in a 96-well plate using glycyl-prolyl-p-nitroanilide (Gly-Pro-pNA) as a specific substrate in the absence and presence of inhibitors. The reaction mixture containing 235 µL of 50 mmol/L Tris-Cl buffer (pH 7) and 5 µL of Gly-Pro-pNA substrate (previously dissolved in the same buffer in a concentration of 6.4 mmol/L) was pre-incubated at 37 °C for 5 min, before the addition of 10 µL of cytoplasmic extract. The same reactions were also carried out in the presence of EDTA and PMSF at increasing concentrations of 0.1, 0.5, 1, 5 and 10 mmol/L. Controls contained a buffer instead of an extract. After incubation for 2 h at 37 °C, reactions were stopped with 50 µL of acetic acid (30%) and the release of pNA was measured spectrophotometrically at 405 nm.\nThe effect of temperature on the PepX activity was determined as described above, modifying the incubation temperature while maintaining a constant pH of 7. The assay was carried out at four temperatures: 5 °C, 35 °C, 40 °C, and 45 °C. The effect of pH on enzyme activity was evaluated at a constant temperature of 37 °C by modifying the pH of the reaction buffer. Tris-HCL buffer (50 mmol/L) was utilized for reactions at pH 4–9, whereas sodium Tris-HCL buffer (50 mmol/L) was used for the assay at pH 7.0. The effect of protease inhibitors was tested by supplementing the reaction mix with EDTA or PMSF at final concentrations of 0, 1, 2, 5, or 10 mmol/L under standard conditions (pH 7.0, 37 °C)."}, "[1]": {"tested_on": "di-peptidyl-peptidase-IV (DPP-IV)", "settings": "cited from earlier work", "procedure": "(§1) Considering the cleavage specificity of PepX and the presence of proline residues in many dairy-derived BPs, the ability of PepX to hydrolyse selected BPs was evaluated. Selected BPs were well-known effective inhibitors of the enzymes ACE and di-peptidyl-peptidase-IV (DPP-IV). […] These two peptides have been identified in several fermented dairy products such as yoghurt and cheeses. The other peptides, ..."}, "blood pressure [2]": {"tested_on": "blood pressure", "settings": "humans; cited from earlier work"}, "ACE": {"tested_on": "ACE", "settings": "cited from earlier work", "procedure": "as §1"}, "blood pressure [3]": {"tested_on": "blood pressure", "settings": "rats; cited from earlier work"}}, "note": "Like-named read-outs stand apart in the source and are kept apart here.", "data": [{"molecule": "O=C(O)CN(CCN(CC(=O)O)CC(=O)O)CC(=O)O", "note": "[EDTA]", "values": [{"measurement": "effect on PepX enzymatic activity (decrease)", "setting": "PepX; vs control without inhibitor", "value": "no effect"}, {"measurement": "residual PepX activity", "setting": "PepX; inhibitor 10 mmol/L, vs control without inhibitor", "value": 40, "unit": "%"}]}, {"molecule": "O=S(=O)(F)Cc1ccccc1", "note": "[PMSF]", "values": [{"measurement": "effect on PepX enzymatic activity (decrease)", "setting": "PepX; vs control without inhibitor", "value": "more than 40%"}, {"measurement": "effect on PepX enzymatic activity", "setting": "PepX; inhibitor 5 mmol/L", "value": "completely abolished"}, {"measurement": "effect on PepX enzymatic activity", "setting": "PepX; inhibitor 10 mmol/L", "value": "completely abolished"}]}, {"molecule": "APFPE", "values": [{"measurement": "DPP-IV inhibition", "setting": "[1]", "value": "potent DPP-IV inhibitors"}]}, {"molecule": "IPPL", "values": [{"measurement": "DPP-IV inhibition", "setting": "[1]", "value": "potent DPP-IV inhibitors"}]}, {"molecule": "Ile-Pro-Pro [IPP, anti-hypertensive lactotripeptide derived from β-casein]", "values": [{"measurement": "reduction of blood pressure in vivo", "setting": "blood pressure [2]", "value": "effective in vivo in reducing blood pressure"}, {"measurement": "ACE inhibition", "setting": "ACE", "value": "potent ACE inhibitors"}, {"measurement": "reduction of blood pressure in vivo", "setting": "blood pressure [3]", "value": "effective in vivo in reducing blood pressure"}]}, {"molecule": "LPPT", "values": [{"measurement": "DPP-IV inhibition", "setting": "[1]", "value": "potent DPP-IV inhibitors"}]}, {"molecule": "Val-Pro-Pro [VPP, anti-hypertensive lactotripeptide derived from β-casein]", "values": [{"measurement": "reduction of blood pressure in vivo", "setting": "blood pressure [2]", "value": "effective in vivo in reducing blood pressure"}, {"measurement": "ACE inhibition", "setting": "ACE", "value": "potent ACE inhibitors"}, {"measurement": "reduction of blood pressure in vivo", "setting": "blood pressure [3]", "value": "effective in vivo in reducing blood pressure"}]}]}
